{
  "source": "paper PMC6158019",
  "about": "(Cancer cell, 2018)",
  "key": {"[1]": {"test_system": "RMS orthotopic xenografts SJRHB000026_X1, SJRHB012_Y, SJRHB013757_X2, SJRHB013759_X1", "format": "in vivo, mouse", "settings": "single-agent groups"}, "[2]": {"test_system": "RMS cell lines and primary cultures of O-PDX cells", "assay": "General drug screening", "format": "cell-based, human", "settings": "for in vitro activity in RMS O-PDX drug screening: primary cultures of RMS O-PDXs and cell lines"}, "[3]": {"test_system": "RMS cell lines (RD cells)", "assay": "Cell cycle", "format": "cell-based, human", "settings": "1 μM AZD1775, 24 or 48 hr"}, "[4]": {"assay": "Abemaciclib plasma and tumor PK in tumor-bearing mice", "settings": "female, athymic nude, mouse, po, 50 mg/kg"}, "[5]": {"settings": "ref Patnaik et al., 2016, cited from earlier work"}, "[6]": {"settings": "mouse, in vivo"}, "[7]": {"settings": "abemaciclib, mice; ref Raub et al., 2015; cited from earlier work"}, "[8]": {"test_system": "RMS O-PDXs", "settings": "previous preclinical phase 2 studies; ref Stewart et al., 2017; cited from earlier work"}, "[9]": {"settings": "ref Goldman et al., 2013, cited from earlier work"}, "[10]": {"assay": "Preclinical phase 1 tolerability study", "settings": "GSP 10 mg/kg, AZD1775 60 mg/kg twice daily, in combination regimens"}, "[11]": {"settings": "species not stated; cited from earlier work"}, "[12]": {"assay": "Ganetespib plasma and tumor PK in tumor-bearing mice", "format": "in vivo, mouse", "settings": "for half-life: female, athymic nude, mouse, iv, 150 mg/kg"}, "[13]": {"assay": "in vivo", "settings": "female, athymic nude"}, "[14]": {"settings": "mice, ref Parrish et al., 2015; cited from earlier work"}, "[15]": {"assay": "Palbociclib human plasma PK", "format": "in vivo", "settings": "patients, 125 mg PO QD, standard calculations"}, "[16]": {"settings": "ref palbociclib FDA NDA reviews, cited from earlier work"}, "[17]": {"assay": "Trametinib human plasma PK", "format": "in vivo", "settings": "patients, standard calculations"}, "[18]": {"assay": "in vivo", "settings": "female, athymic nude, mouse, po, 0.1 mg/kg"}, "[19]": {"settings": "cited from earlier work; for mean plasma CL/F: population PK"}},
  "note": "Read-outs that look alike come from different tables or passages of the source.",
  "data": [
    {"compound": "C=CCn1c(=O)c2cnc(Nc3ccc(N4CCN(C)CC4)cc3)nc2n1-c1cccc(C(C)(C)O)n1", "note": "[AZD1775]", "values": [
      {"measurement": "overall survival compared with placebo", "setting": "[1]", "value": "not different from placebo"},
      {"measurement": "in vitro activity in RMS O-PDX drug screening", "setting": "[2]", "value": "significant in vitro activity"},
      {"measurement": "cell cycle and nuclear effects", "setting": "[3]", "value": "G2/M phase arrest, mitotic catastrophe, and nuclear fragmentation"}
    ]},
    {"compound": "CCN1CCN(Cc2ccc(Nc3ncc(F)c(-c4cc(F)c5nc(C)n(C(C)C)c5c4)n3)nc2)CC1", "note": "[abemaciclib]", "values": [
      {"measurement": "half-life", "setting": "[4]; plasma", "value": 5.2, "unit": "h"},
      {"measurement": "half-life", "setting": "[4]; tumor", "value": 5.98, "unit": "h"},
      {"measurement": "geometric mean total plasma AUCtau at steady state", "setting": "[5]; 200 mg PO BID", "value": 3000, "unit": "ng·h/mL"},
      {"measurement": "geometric mean trough concentration", "setting": "[5]; 200 mg PO BID", "value": 197, "unit": "ng/mL"},
      {"measurement": "maximum tolerated dose (MTD)", "setting": "[5]; Phase 1, single agent, continuous", "value": 200, "unit": "mg PO BID"},
      {"measurement": "rounded and recommended MED", "setting": "[6]; female, athymic nude", "value": "7.5-15 mg/kg PO BID"},
      {"measurement": "plasma AUC lower than that reported by Tate", "setting": "[6]; female, athymic nude, po, 50 mg/kg", "value": "~ 3.8 fold"},
      {"measurement": "murine equivalent dose (MED) providing a similar total plasma AUC", "setting": "[6]", "value": 14.4, "unit": "mg/kg"},
      {"measurement": "mean in vitro fraction unbound in the plasma (Fu,p)", "setting": "[7]", "value": 0.054}
    ]},
    {"compound": "CC(C)C[C@H](NC(=O)[C@H](Cc1ccccc1)NC(=O)c1cnccn1)B(O)O", "note": "[bortezomib]", "values": [
      {"measurement": "efficacy in vivo", "setting": "[8]", "value": "failed to show efficacy in vivo"}
    ]},
    {"compound": "CC(C)c1cc(-c2n[nH]c(=O)n2-c2ccc3c(ccn3C)c2)c(O)cc1O", "note": "[ganetespib]", "values": [
      {"measurement": "recommended Phase 2 dose (RP2D)", "setting": "[9]; IV once weekly for 3 weeks of a 4-week cycle", "value": 200, "unit": "mg/m^2"},
      {"measurement": "estimated human total plasma AUCinf", "setting": "[9]; at 200 mg/m^2", "value": "approximately 7000 hr-ng/mL"},
      {"measurement": "major adverse events", "setting": "[9]; patients", "value": "diarrhea and fatigue"},
      {"measurement": "overall survival compared with placebo", "setting": "[1]", "value": "not different from placebo"},
      {"measurement": "sensitivity of RMS cells relative to other pediatric solid tumors", "setting": "[2]; RMS cell lines and primary cultures of O-PDX cells", "value": "more sensitive"},
      {"measurement": "in vitro activity in RMS O-PDX drug screening", "setting": "[2]", "value": "significant in vitro activity"},
      {"measurement": "tolerability", "setting": "[10]", "value": "well tolerated in all groups"},
      {"measurement": "plasma protein binding", "setting": "[11]", "value": "high"},
      {"measurement": "increase in plasma Cmax for a 3-fold increase in dose", "setting": "[12]; 50 to 150 mg/kg IV, 10 min after injection, data not shown", "value": "~17", "unit": "fold"},
      {"measurement": "half-life", "setting": "[12]; plasma", "value": 2.03, "unit": "h"},
      {"measurement": "half-life", "setting": "[12]; tumor", "value": 8.42, "unit": "h"},
      {"measurement": "murine equivalent dose (MED) providing a similar total plasma AUCinf", "setting": "[12]; vs human 200 mg/m^2", "value": 12.8, "unit": "mg/kg"}
    ]},
    {"compound": "CC(=O)c1c(C)c2cnc(Nc3ccc(N4CCNCC4)cn3)nc2n(C2CCCC2)c1=O", "note": "[palbociclib]", "values": [
      {"measurement": "back-estimated mouse plasma Cavg", "setting": "[13]; 10 mg/kg", "value": 76.9, "unit": "ng/mL"},
      {"measurement": "murine equivalent dose (MED)", "setting": "[13]; mouse", "value": 10, "unit": "mg/kg"},
      {"measurement": "CL/F", "setting": "[13]; mouse, po, 16 mg/kg", "value": 91.2, "unit": "mL/min/kg"},
      {"measurement": "Kp", "setting": "[13]; mouse, po, 16 mg/kg", "value": "~6"},
      {"measurement": "half-life", "setting": "[13]; mouse, po, 16 mg/kg", "value": 2.61, "unit": "h"},
      {"measurement": "apparent terminal half-life (T1/2), literature", "setting": "[14]", "value": "approximately 3.4 hr"},
      {"measurement": "estimated total plasma Cavg,ss", "setting": "[15]", "value": "about 85 ng/mL"},
      {"measurement": "estimated total plasma AUCtau at steady state", "setting": "[16]; patients, 125 mg PO QD", "value": 2080, "unit": "ng·h/mL"},
      {"measurement": "mean plasma CL/F", "setting": "[16]; typical patient, population PK", "value": 60.2, "unit": "L/h"}
    ]},
    {"compound": "Cc1[nH]c2ccccc2c1CCNCc1ccc(/C=C/C(=O)NO)cc1", "note": "[panobinostat]", "values": [
      {"measurement": "efficacy in vivo", "setting": "[8]", "value": "failed to show efficacy in vivo"}
    ]},
    {"compound": "CC(=O)Nc1cccc(-n2c(=O)n(C3CC3)c(=O)c3c(Nc4ccc(I)cc4F)n(C)c(=O)c(C)c32)c1", "note": "[trametinib]", "values": [
      {"measurement": "estimated total plasma Cavg,ss", "setting": "[17]", "value": "about 15.1 ng/mL"},
      {"measurement": "Kp", "setting": "[18]", "value": 5.49},
      {"measurement": "mean AUC", "setting": "[19]; across genders, 2 mg PO QD, ref Ouellet et al., 2016", "value": 365, "unit": "ng·h/mL"},
      {"measurement": "maximum tolerated dose (MTD)", "setting": "[19]; putative single agent", "value": 2, "unit": "mg PO QD"},
      {"measurement": "mean plasma CL/F", "setting": "[19]; typical female patient, ref Ouellet et al., 2016", "value": 4.91, "unit": "L/h"},
      {"measurement": "mean plasma CL/F", "setting": "[19]; typical male patient, ref Ouellet et al., 2016", "value": 6.19, "unit": "L/h"}
    ]}
  ]
}
